Key:
D(1A) dopamine receptor = D(1A) dopamine receptor (Homo sapiens, UniProt P21728); assay: Displacement of [3H]SCH23390 from human D1 dopamine receptor expressed in Ltk fibroblast cells after 60 mins by liquid scintillation counter; assay type: cell-based
D(2) dopamine receptor [1] = target: T1, D(2) dopamine receptor (Rattus norvegicus, UniProt P61169); assay: Agonist activity at rat D2 dopamine receptor expressed in CHOK1 cells assessed as [35S]GTPgammaS binding after 90 mins by liquid scintillation counter; assay type: functional, cell-based, CHO-K1
T1 sequence (P61169 whole entry): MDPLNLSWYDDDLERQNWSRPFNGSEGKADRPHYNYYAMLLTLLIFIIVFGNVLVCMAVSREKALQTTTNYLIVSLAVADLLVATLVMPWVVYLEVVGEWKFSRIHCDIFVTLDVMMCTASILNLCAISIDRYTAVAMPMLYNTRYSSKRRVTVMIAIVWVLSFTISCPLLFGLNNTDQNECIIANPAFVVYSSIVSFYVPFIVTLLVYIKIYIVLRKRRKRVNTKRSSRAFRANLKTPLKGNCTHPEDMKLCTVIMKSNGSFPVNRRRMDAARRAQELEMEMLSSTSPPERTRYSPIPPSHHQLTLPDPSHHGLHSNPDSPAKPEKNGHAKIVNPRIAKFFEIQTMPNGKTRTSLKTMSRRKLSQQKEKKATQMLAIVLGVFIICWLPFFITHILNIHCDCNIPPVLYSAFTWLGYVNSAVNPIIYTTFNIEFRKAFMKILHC

[2] = Selectivity ratio of Ki for rat D2 dopamine receptor to Ki for human D1 dopamine receptor
D(2) dopamine receptor [3] = target: T1, D(2) dopamine receptor; assay: Displacement of [3H]raclopride from rat D2 dopamine receptor expressed in CHOK1 cells after 90 mins by liquid scintillation counter scintillation counter; assay type: cell-based, CHO-K1

Sequence of D(1A) dopamine receptor (P21728 whole entry): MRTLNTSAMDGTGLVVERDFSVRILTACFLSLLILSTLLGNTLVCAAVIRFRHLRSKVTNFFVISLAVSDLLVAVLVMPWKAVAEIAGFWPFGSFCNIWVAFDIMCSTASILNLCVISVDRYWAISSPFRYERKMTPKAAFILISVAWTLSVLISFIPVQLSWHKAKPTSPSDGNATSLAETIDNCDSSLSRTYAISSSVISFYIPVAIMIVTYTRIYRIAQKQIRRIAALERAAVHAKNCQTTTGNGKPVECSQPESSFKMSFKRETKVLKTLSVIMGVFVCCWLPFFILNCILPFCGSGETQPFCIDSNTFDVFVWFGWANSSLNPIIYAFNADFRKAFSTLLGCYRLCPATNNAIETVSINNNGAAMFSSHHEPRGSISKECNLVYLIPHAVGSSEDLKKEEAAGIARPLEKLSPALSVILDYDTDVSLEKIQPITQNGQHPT

| Structure (SMILES) | Ki (D(1A) dopamine receptor) [nM] | EC50 (D(2) dopamine receptor [1]) [nM] | Ratio Ki [2] | Ki (D(2) dopamine receptor [3]) [nM] |
| --- | --- | --- | --- | --- |
| CN1CCc2cc(SC[C@@H](N)C(=O)O)cc3c2[C@H]1Cc1ccc(O)c(O)c1-3 | 141 | – | – | – |
| CN1CCc2cc(SCCN)cc3c2[C@H]1Cc1ccc(O)c(O)c1-3 | 1300 | 16 | 135 | 9.6 |
| CN1CCc2c3c(cc4c2[C@H]1Cc1ccc(O)c(O)c1-4)SCCC3=O | 140 | 383 | 0.3 | 415 |
| CN1CCc2cc(Sc3ccccc3)cc3c2[C@H]1Cc1ccc(O)c(O)c1-3 | 2200 | 820 | 47 | 580 |
| CN1CCc2cc(SC[C@H](N)C(=O)O)cc3c2[C@H]1Cc1ccc(O)c(O)c1-3 | 4200 | – | – | – |
| COC(=O)[C@@H](N)CSc1cc2c3c(c1)-c1c(ccc(O)c1O)C[C@H]3N(C)CC2 | 380 | 24 | 38 | 10 |
| CN1CCc2cc(SCCC(=O)O)cc3c2[C@H]1Cc1ccc(O)c(O)c1-3 | 150 | 148 | 0.4 | 400 |
